Legend:
Assay type in all cases: cell-based
[1] = molecular target: T1, human Nav1.7 channels stably expressed in HEK 293 cells (Homo sapiens, UniProt Q15858); test: PatchXpress 7000 automated patch-clamp, sodium current; conditions: 22° C., read-out: potency for the Nav 1.7 sodium ion channel (as measured by PatchXpress)
T1 construct: expressed in transfected cells
In short: (§1)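 IC50 values came from Hill-equation fits of rundown-corrected inhibition. PatchXpress recordings at 22° C held cells 20 mV negative to V0.5 inact and applied 10 Hz trains of 30 ms steps to −20 mV (Nav1.7) or an 8000 ms prepulse 7 mV positive to V0.5 inact. […]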

[2] = molecular target: T2, human Nav1.5 channels stably expressed in HEK 293 cells (Homo sapiens, UniProt Q14524); test: as above; conditions: selectivity over Nav1.5
T2 construct: expressed in transfected cells
T2 sequence (Q14524 whole entry): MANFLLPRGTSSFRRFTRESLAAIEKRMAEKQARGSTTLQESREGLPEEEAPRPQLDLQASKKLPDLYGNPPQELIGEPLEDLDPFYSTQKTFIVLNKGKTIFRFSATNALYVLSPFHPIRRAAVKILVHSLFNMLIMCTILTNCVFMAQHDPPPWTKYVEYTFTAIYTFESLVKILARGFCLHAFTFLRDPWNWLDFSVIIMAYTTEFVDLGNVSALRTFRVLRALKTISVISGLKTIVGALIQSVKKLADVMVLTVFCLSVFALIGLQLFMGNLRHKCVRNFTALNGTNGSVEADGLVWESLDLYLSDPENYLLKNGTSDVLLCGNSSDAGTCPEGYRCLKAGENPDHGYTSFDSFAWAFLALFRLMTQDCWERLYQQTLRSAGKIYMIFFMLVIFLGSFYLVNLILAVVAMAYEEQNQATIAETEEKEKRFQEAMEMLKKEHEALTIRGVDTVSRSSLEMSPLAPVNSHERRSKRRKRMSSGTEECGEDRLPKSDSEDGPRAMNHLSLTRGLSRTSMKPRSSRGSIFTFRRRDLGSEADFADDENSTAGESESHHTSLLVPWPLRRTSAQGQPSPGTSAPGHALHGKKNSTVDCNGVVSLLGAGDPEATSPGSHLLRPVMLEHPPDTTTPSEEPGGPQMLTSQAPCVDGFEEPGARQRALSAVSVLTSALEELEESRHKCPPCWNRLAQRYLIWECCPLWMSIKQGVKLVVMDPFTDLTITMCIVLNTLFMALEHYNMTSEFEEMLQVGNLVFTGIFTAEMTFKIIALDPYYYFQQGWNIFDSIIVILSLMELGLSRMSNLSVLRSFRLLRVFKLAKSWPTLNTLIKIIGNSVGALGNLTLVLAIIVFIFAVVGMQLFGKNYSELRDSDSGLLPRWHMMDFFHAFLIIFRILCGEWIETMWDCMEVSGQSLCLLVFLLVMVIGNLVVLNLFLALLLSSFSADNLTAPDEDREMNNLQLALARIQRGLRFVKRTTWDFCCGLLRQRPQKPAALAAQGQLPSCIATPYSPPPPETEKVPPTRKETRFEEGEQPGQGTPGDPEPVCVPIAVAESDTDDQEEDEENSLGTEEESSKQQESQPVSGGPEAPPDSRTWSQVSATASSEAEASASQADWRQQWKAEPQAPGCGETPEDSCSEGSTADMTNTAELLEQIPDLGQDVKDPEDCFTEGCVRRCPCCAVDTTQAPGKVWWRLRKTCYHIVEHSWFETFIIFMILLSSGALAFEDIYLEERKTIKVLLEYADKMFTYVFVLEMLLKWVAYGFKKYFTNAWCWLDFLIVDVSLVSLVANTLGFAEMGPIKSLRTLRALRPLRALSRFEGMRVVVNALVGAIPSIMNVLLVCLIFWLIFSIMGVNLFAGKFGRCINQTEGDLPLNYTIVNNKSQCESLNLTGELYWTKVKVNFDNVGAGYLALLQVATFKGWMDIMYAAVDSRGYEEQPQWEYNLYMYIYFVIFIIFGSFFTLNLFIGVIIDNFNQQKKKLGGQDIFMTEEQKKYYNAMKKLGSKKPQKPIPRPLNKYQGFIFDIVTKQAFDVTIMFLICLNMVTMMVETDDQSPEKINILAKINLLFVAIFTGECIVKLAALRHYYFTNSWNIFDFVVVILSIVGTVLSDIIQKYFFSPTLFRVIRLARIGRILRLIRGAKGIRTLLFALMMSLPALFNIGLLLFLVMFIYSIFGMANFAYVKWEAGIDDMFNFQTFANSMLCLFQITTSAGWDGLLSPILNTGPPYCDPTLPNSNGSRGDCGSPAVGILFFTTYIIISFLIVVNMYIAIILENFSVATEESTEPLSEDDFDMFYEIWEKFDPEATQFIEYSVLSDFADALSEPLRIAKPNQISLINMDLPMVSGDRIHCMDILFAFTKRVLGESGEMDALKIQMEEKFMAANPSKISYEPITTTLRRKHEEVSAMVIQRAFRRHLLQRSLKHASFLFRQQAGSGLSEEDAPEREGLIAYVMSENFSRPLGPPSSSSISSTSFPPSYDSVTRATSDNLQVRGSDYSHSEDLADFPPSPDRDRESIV
In short: as §1

[3] = molecular target: T1, human Nav1.7 channels stably expressed in HEK 293 cells; test: IonWorks Quattro automated patch-clamp, sodium current, inactivated state block; conditions: read-out: potency for the Nav 1.7 sodium ion channel (as measured by IonWorks)
Method: (§2) Compounds were tested on human Nav1.7 and Nav1.5 channels stably expressed in HEK 293 cells. […] Cells were sealed on a planar substrate using the Population Patch Plate (PPC) technology. Electrical access was obtained using both nystatin and amphotericin. A double-pulse protocol was used for the determination of IC50 values for inactivated state block. Nav1.7 and Nav1.5 expressing cells were voltage clamped at −100 mV and −110 mV, respectively. A depolarizing prepulse to −10 mV (Nav1.7) or −30 mV (Nav1.5) for 1000 ms followed by a 10 ms repolarization to −100 mV (Nav1.7) or −110 mV (Nav1.5) was given to generate fractional channel inactivation of ˜50%, followed by a 10 ms test pulse to −10 mV (Nav1.7) or −30 mV (Nav1.5) to measure peak current in control conditions and after compound addition. The following recording solutions were used (mM). External: 150 NaCl, 2 CaCl2, 5 KCl, 1 Mg Cl2, 10 HEPES, 12 Dextrose; internal: 120 CsF, 30 CsCl, 10 EGTA, 5 HEPES, 5 NaF, 2 MgCl2.
(§3) For all electrophysiology experiments, offline analysis was used to correct for current rundown and to determine percent inhibition as a function of drug concentration. IC50 values were determined by fitting to the Hill equation.

[4] = molecular target: T2, human Nav1.5 channels stably expressed in HEK 293 cells; test: as above; conditions: selectivity over Nav1.5
Method: as §2, §3

T1 sequence (Q15858 whole entry): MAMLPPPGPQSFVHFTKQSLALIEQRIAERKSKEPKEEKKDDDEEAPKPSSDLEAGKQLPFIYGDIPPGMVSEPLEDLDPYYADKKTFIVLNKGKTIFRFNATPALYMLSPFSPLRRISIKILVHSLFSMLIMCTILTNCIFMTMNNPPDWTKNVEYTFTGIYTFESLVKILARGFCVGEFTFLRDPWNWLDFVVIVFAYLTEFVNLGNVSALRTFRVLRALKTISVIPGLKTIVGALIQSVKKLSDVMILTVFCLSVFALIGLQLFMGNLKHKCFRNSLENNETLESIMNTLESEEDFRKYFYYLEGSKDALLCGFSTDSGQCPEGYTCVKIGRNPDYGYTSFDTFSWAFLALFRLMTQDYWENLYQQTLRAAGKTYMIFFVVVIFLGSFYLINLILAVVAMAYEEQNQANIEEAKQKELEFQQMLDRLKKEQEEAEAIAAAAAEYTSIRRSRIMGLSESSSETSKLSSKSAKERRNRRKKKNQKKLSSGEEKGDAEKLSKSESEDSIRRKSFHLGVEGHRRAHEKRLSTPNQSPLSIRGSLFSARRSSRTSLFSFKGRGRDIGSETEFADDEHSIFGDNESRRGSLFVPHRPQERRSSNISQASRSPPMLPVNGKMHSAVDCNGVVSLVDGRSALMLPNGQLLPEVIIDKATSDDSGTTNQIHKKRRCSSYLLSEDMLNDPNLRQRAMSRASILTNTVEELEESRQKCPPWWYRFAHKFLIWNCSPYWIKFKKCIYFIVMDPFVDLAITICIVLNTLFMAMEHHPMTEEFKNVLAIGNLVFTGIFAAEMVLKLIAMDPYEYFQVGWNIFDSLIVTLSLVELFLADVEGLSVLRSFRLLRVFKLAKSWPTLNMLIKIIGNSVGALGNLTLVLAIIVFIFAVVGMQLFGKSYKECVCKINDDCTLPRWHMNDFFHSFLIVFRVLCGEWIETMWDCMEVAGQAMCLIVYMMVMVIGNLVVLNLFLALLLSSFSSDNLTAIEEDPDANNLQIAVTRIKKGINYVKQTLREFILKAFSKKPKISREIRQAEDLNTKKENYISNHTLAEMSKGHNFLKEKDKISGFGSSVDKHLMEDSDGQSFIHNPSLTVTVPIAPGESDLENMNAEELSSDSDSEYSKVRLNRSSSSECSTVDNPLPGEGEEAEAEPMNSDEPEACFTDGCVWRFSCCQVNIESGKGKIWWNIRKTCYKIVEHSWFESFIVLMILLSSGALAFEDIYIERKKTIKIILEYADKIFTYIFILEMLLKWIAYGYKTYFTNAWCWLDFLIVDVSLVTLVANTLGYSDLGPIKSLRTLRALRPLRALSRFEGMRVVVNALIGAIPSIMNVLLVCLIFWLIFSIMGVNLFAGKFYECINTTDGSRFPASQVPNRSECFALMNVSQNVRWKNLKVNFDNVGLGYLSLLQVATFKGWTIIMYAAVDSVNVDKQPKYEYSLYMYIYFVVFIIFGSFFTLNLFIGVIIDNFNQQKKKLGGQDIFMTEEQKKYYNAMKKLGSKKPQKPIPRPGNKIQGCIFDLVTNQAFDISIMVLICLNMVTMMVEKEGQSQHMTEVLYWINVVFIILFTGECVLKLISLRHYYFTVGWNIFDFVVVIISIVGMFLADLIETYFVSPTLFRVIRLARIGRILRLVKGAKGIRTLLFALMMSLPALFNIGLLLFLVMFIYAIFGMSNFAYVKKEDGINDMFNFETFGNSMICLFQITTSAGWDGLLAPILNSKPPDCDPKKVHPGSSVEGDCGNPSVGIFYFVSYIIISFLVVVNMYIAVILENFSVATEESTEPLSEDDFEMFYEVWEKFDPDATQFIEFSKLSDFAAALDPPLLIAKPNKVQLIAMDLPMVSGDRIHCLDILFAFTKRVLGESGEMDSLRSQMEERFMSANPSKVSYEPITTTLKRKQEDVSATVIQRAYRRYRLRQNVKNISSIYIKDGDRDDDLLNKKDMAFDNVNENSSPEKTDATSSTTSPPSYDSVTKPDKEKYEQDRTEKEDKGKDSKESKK

| Compound | IC50 [1] | ratio of Nav 1.5:Nav 1.7 potency, determined by PatchXpress measurement [2] | IC50 [3] | ratio of Nav 1.5:Nav 1.7 potency, determined by IonWorks measurement [4] |
| --- | --- | --- | --- | --- |
| CCN1CCc2cccc(Cn3c(=O)oc4cc(S(=O)(=O)Nc5ncns5)ccc43)c2C1 [Compound 6-2, 3-[(2-ethyl-1,2,3,4-tetrahydroisoquinolin-8-yl)methyl]-2-oxo-N-1,2,4-thiadiazol-5-yl-2,3-dihydro-1,3-benzoxazole-6-sulfonamide] | 234 nM | 71 | 336 nM | > 98 |
| O=c1oc2cc(S(=O)(=O)Nc3ncns3)ccc2n1Cc1cccc2c1CN(CC1CC1)CC2 [Compound 6-4, 3-{[2-(cyclopropylmethyl)-1,2,3,4-tetrahydroisoquinolin-8-yl]methyl}-2-oxo-N-1,2,4-thiadiazol-5-yl-2,3-dihydro-1,3-benzoxazole-6-sulfonamide] | 626 nM | 37 | 464 nM | 54 |
| CS(=O)(=O)N1CCc2cccc(Cn3c(=O)oc4cc(S(=O)(=O)Nc5ncns5)ccc43)c2C1 [Compound 8-4, 3-{[2-(Methylsulfonyl)-1,2,3,4-tetrahydroisoquinolin-8-yl]methyl}-2-oxo-N-(1,2,4-thiadiazol-5-yl)-2,3-dihydro-1,3-benzoxazole-6-sulfonamide] | 254 nM | > 1180 | 526 nM | 20 |
| CC(=O)N1CCc2cccc(Cn3c(=O)oc4cc(S(=O)(=O)Nc5ncns5)ccc43)c2C1 [Compound 9-1, 3-[(2-Acetyl-1,2,3,4-tetrahydroisoquinolin-8-yl)methyl]-2-oxo-N-(1,2,4-thiadiazol-5-yl)-2,3-dihydro-1,3-benzoxazole-6-sulfonamide] | 530 nM | > 57 | 638 nM | 35 |
| O=C(C1CC1)N1CCc2cccc(Cn3c(=O)oc4cc(S(=O)(=O)Nc5ncns5)ccc43)c2C1 [Compound 10-1, 3-{[2-(Cyclopropylcarbonyl)-1,2,3,4-tetrahydroisoquinolin-8-yl]methyl}-2-oxo-N-1,2,4-thiadiazol-5-yl-2,3-dihydro-1,3-benzoxazole-6-sulfonamide] | 598 nM | 14 | 666 nM | > 50 |
| O=c1oc2cc(S(=O)(=O)Nc3ncns3)c(F)cc2n1Cc1cccc2c1CNCC2 [Compound 11-5, 5-Fluoro-2-oxo-3-(1,2,3,4-tetrahydroisoquinolin-8-ylmethyl)-N-(1,2,4-thiadiazol-5-yl)-2,3-dihydro-1,3-benzoxazole-6-sulfonamide] | 69 nM | 139 | 101 nM | 182 |
| C[C@@H](c1cccc2c1CNCC2)n1c(=O)oc2cc(S(=O)(=O)Nc3ncns3)c(F)cc21 [Compound 11-6, 5-fluoro-2-oxo-3-[(1S)-1-(1,2,3,4-tetrahydroisoquinolin-8-yl)ethyl]-N-1,2,4-thiadiazol-5-yl-2,3-dihydro-1,3-benzoxazole-6-sulfonamide] | 322 nM | > 93 | 576 nM | 57 |
| NC/C=C/c1ccccc1Cn1c(=O)oc2cc(S(=O)(=O)Nc3ncns3)c(F)cc21 [Compound 12-3, 3-{2-[(1E)-3-Aminoprop-1-en-1-yl]benzyl}-5-fluoro-2-oxo-N-(1,2,4-thiadiazol-5-yl)-2,3-dihydro-1,3-benzoxazole-6-sulfonamide] | 27 nM | 1096 | 5 nM | 6084 |
| C[C@H](c1cccc2c1CNCC2)n1c(=O)oc2cc(S(=O)(=O)Nc3ncns3)c(F)cc21 [Compound 13-2, 5-Fluoro-2-oxo-3-[(1R)-1-(1,2,3,4-tetrahydroisoquinolin-8-yl)ethyl]-N-(1,2,4-thiadiazol-5-yl)-2,3-dihydro-1,3-benzoxazole-6-sulfonamide] | 26 nM | 357 | 4 nM | 2604 |
| C[C@H](c1ccccc1)n1c(=O)oc2cc(S(=O)(=O)Nc3ncns3)c(F)cc21 [Compound 13-3, 5-fluoro-2-oxo-3-[(1R)-1-phenylethyl]-N-1,2,4-thiadiazol-5-yl-2,3-dihydro-1,3-benzoxazole-6-sulfonamide] | 42 nM | 162 | 21 nM | 418 |
| C[C@@H](c1ccccc1)n1c(=O)oc2cc(S(=O)(=O)Nc3ncns3)c(F)cc21 [Compound 13-4, 5-fluoro-2-oxo-3-[(1S)-1-phenylethyl]-N-1,2,4-thiadiazol-5-yl-2,3-dihydro-1,3-benzoxazole-6-sulfonamide] | 167 nM | 27 | 157 nM | 78 |
| O=c1oc2cc(S(=O)(=O)Nc3ncns3)c(F)cc2n1C(c1ccccc1)C1CC1 (stereo not drawn) [Compound 13-5, 3-[cyclopropyl(phenyl)methyl]-5-fluoro-2-oxo-N-1,2,4-thiadiazol-5-yl-2,3-dihydro-1,3-benzoxazole-6-sulfonamide] | 145 nM | > 30 | 110 nM | > 300 |

From patent US9273040B2 (Merck Sharp & Dohme Corp., priority 2011, dated 2016)
